# Literature values in patent publication US20070135454A1, “Bicyclic pyrimidin-4(3h)-ones and analogues and derivatives thereof which modulate the function of the vanilloid-1-receptor(vr1)” (priority 2003, published 2007).
# Target: VR1 (Rattus norvegicus, UniProt O35433)
# Conditions: Wahl et al., Mol. Pharmacol, 59:9, 2001
# VR1, sequence (O35433 whole entry): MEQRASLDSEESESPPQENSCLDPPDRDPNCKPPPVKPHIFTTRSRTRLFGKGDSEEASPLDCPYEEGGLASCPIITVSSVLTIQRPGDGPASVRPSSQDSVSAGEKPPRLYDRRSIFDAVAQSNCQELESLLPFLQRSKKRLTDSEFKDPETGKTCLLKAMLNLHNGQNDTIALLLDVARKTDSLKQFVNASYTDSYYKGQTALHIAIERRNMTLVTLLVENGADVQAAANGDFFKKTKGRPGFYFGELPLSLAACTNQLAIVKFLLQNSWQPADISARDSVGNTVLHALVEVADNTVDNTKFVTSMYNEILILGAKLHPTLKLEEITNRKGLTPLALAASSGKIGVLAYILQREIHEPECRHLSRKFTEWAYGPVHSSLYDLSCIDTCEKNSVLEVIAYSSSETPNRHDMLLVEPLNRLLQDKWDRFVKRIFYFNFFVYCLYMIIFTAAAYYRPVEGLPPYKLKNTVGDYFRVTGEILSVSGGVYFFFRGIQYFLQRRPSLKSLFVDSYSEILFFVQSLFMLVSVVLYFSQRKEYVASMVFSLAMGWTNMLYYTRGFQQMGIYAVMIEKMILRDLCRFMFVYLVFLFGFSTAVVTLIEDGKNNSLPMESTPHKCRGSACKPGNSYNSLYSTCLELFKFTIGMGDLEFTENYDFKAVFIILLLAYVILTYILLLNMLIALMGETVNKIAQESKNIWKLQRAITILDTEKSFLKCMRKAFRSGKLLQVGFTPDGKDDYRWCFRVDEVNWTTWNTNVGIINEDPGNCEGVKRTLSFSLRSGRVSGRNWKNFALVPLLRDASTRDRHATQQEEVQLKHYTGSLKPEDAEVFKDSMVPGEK
structure (smiles),measurement,value
C=C(C)[C@]12C[C@@H](C)[C@@]34O[C@](Cc5ccccc5)(O[C@@H]1[C@@H]3C=C(COC(=O)Cc1cc(I)c(O)c(OC)c1)C[C@]1(O)C(=O)C(C)=C[C@@H]41)O2 [Iodo-resiniferatoxin],antagonist of VR1 (potency in words),nanomolar antagonist of VR1
